Consider one compound from ChEMBL document CHEMBL4346729, “The discovery of novel 3-aryl-indazole derivatives as peripherally restricted pan-Trk inhibitors for the treatment of pain” (Bioorg Med Chem Lett, 2019).

The source made the active and inactive calls. The rule behind the calls is not given here.

Data set [1] is described as follows: Clearance in Sprague-Dawley rat at 1 mg/kg, iv. It is filed as ADME, organism-based. Particulars: in vivo.
Data set [2] is described as follows: Ratio of drug level in brain to plasma of Sprague-Dawley rat at 2.5 mg/kg, ip. In kind it is ADME, organism-based. Particulars: read-out: BPR.
The test system of data set [3] is Rattus norvegicus. Description: Unbound drug level in plasma of CFA induced Sprague-Dawley rat at 20 mg/kg, po after 1 hr. It is filed as ADME, organism-based. As to conditions: in vivo.
Data set [4] has as its system Rattus norvegicus. Description: Antinociceptive activity in CFA induced thermal hypersensitivity Sprague-Dawley rat model assessed as increase in paw withdrawal latency at 100 mg/kg, po after 1 hr. It is filed as functional, organism-based.
The target in data set [5] is Activin receptor type-1 (Homo sapiens) (UniProt Q04771). Description: Inhibition of recombinant human N-terminal GST/His6-tagged ACVR1 C-terminal (A145 to C509) expressed in Sf9 insect cells at 20 nM using phosphatidylserine as substrate incubated for 60 mins in presence of [33P]-ATP by scintillation counting method.
Activin receptor type-1 (Homo sapiens), sequence (Q04771 whole entry): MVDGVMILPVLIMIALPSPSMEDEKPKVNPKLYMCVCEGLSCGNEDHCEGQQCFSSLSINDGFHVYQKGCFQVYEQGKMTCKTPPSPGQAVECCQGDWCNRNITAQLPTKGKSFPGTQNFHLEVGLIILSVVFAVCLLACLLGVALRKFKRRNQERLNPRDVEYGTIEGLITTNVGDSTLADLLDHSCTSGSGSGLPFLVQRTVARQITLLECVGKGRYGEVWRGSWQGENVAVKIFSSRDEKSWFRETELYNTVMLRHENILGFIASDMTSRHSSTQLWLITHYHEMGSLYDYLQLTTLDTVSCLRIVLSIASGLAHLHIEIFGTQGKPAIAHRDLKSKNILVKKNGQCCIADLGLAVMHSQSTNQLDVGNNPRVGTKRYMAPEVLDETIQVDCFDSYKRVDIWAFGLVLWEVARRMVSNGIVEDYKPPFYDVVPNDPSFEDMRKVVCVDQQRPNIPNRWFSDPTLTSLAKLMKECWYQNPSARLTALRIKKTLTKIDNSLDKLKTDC
For data set [6], the target named is 5'-AMP-activated protein kinase catalytic subunit alpha-1 (Homo sapiens) (UniProt Q13131). The experiment in a line: Inhibition of recombinant human full length N-terminal GST/His6-tagged AMPKalpha1 (M1 to Q550) expressed in Sf9 insect cells at 20 nM using phosphatidylserine as substrate incubated for 60 mins in presence of [33P]-ATP by scintillation counting method.
5'-AMP-activated protein kinase catalytic subunit alpha-1 (Homo sapiens), sequence (Q13131 whole entry, looked up): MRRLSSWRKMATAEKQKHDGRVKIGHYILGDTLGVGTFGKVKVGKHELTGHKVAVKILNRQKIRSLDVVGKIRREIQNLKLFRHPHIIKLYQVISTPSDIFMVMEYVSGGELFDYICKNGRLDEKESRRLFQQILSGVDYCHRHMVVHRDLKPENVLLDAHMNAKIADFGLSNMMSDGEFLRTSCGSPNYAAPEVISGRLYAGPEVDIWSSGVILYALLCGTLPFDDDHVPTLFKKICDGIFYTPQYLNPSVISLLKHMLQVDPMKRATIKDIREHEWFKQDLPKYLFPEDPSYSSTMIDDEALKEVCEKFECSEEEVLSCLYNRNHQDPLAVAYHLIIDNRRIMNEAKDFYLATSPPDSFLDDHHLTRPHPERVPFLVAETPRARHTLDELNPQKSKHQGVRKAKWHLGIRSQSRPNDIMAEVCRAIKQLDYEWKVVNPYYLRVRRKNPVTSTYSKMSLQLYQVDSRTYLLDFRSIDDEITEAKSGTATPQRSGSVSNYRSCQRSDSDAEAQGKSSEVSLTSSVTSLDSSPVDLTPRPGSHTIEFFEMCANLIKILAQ

Data set [7] addresses Tyrosine-protein kinase BTK (Homo sapiens) (UniProt Q06187). Description: Inhibition of recombinant human full length N-terminal GST/His6-tagged BTK (M1 to S659) expressed in Sf9 insect cells at 20 nM using phosphatidylserine as substrate incubated for 60 mins in presence of [33P]-ATP by scintillation counting method.
Data set [8] deals with Cyclin-dependent kinase 2/cyclin E1 (Homo sapiens) (UniProt P24864+P24941). Description: Inhibition of CDK2/Cyclin-E1 (unknown origin) at 20 nM using Phosphatidylserine as substrate incubated for 60 mins in presence of [33P]-ATP by scintillation counting method. It is filed as protein-complex assay.
The target in data set [9] is Casein kinase I isoform delta (Homo sapiens) (UniProt P48730). The experiment in a line: Inhibition of CK1-delta (unknown origin) at 20 nM using phosphatidylserine as substrate incubated for 60 mins in presence of [33P]-ATP by scintillation counting method.
Casein kinase I isoform delta (Homo sapiens), sequence (P48730 whole entry, looked up, canonical isoform): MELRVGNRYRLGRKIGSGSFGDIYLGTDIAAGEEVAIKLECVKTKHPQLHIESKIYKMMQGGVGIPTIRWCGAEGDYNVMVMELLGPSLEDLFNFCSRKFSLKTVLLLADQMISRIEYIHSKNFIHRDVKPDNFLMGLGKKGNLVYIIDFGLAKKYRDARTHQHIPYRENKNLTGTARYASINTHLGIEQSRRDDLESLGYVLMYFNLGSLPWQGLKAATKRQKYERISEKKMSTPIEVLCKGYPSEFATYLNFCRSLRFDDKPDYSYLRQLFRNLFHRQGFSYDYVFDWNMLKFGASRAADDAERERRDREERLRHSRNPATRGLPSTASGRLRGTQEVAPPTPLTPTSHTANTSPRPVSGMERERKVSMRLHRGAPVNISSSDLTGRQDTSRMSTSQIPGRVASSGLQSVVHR
The target of data set [10] is Serine/threonine-protein kinase MARK1 (Homo sapiens) (UniProt Q9P0L2). The experiment in a line: Inhibition of recombinant human full length N-terminal GST/His6-tagged MARK1 (M1 to L780) expressed in Sf9 insect cells at 20 nM using phosphatidylserine as substrate incubated for 60 mins in presence of [33P]-ATP by scintillation counting method.
Serine/threonine-protein kinase MARK1 (Homo sapiens), sequence (Q9P0L2 whole entry, looked up): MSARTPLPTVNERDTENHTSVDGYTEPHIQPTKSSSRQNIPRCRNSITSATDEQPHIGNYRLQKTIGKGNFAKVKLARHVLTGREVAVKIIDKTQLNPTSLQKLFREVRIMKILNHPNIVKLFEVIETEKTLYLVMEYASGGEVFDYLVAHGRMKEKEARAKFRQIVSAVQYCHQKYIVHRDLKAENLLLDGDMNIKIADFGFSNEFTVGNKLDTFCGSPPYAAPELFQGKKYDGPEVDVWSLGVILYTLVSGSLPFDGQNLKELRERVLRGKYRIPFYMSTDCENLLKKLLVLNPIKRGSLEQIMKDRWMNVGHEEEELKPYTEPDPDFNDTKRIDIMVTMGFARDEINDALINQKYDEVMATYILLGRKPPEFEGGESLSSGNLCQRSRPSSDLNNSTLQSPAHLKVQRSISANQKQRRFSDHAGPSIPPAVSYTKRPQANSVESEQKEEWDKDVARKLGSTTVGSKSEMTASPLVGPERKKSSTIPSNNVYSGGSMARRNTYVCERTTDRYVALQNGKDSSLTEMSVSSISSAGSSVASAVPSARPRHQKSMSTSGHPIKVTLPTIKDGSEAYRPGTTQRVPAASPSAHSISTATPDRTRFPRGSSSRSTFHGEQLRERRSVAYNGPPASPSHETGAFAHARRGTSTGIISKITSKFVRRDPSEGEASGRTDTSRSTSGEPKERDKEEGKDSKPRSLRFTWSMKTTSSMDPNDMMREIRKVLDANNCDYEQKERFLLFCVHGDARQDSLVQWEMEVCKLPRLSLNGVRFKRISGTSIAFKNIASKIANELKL
The target in data set [11] is Serine/threonine-protein kinase D2 (Homo sapiens) (UniProt Q9BZL6). Description: Inhibition of PRKD2 (unknown origin) at 20 nM using phosphatidylserine as substrate incubated for 60 mins in presence of [33P]-ATP by scintillation counting method.
Serine/threonine-protein kinase D2 (Homo sapiens), sequence (Q9BZL6 whole entry): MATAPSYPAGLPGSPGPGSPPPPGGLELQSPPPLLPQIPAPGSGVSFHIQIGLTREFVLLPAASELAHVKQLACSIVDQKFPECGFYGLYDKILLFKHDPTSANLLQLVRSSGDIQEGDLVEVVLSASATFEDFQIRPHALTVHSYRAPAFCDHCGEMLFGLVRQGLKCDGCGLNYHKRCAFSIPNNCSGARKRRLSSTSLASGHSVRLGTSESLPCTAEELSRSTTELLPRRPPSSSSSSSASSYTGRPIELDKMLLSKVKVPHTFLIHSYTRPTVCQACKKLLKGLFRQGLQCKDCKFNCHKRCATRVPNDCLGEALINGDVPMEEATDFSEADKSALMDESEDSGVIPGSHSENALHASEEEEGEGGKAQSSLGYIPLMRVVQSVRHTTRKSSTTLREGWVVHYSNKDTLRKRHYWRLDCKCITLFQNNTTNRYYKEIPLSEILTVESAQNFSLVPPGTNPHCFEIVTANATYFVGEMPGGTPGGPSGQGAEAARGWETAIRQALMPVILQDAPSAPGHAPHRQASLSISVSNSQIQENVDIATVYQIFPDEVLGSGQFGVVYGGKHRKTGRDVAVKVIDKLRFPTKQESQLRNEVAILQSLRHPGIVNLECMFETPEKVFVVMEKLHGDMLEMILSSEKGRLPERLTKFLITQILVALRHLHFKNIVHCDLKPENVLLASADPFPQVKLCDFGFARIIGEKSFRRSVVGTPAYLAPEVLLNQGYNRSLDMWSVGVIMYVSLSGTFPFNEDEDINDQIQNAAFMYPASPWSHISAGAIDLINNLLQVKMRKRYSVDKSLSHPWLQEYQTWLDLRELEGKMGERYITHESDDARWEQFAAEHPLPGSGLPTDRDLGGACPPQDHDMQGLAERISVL
The target of data set [12] is Tyrosine-protein kinase SYK (Homo sapiens) (UniProt P43405). Description: Inhibition of recombinant human full length N-terminal GST and C-terminal His6-tagged SYK (M1 to N635) expressed in Sf9 insect cells at 20 nM using phosphatidylserine as substrate incubated for 60 mins in presence of [33P]-ATP by scintillation counting method.

Tyrosine-protein kinase BTK (Homo sapiens), sequence (Q06187 whole entry): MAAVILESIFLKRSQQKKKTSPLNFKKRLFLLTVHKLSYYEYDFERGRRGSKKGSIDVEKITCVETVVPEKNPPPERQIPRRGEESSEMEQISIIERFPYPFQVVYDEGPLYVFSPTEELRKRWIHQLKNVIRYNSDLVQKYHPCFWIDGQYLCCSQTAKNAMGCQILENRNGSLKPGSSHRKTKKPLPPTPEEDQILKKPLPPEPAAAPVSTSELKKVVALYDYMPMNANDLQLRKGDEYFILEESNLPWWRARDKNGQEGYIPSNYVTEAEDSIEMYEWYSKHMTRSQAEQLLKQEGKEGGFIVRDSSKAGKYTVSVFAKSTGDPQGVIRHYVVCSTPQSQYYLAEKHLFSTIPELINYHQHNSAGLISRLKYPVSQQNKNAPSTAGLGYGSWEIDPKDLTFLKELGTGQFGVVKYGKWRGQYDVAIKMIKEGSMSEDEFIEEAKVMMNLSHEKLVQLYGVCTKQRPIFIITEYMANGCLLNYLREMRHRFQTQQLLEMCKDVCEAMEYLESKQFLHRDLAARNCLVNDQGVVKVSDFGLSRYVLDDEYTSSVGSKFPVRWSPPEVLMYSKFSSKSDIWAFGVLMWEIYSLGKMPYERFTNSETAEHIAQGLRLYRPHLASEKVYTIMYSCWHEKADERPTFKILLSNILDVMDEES

Broadly, the clearance is the rate of elimination divided by the concentration. A higher clearance goes with a high capacity for elimination. Broadly, the inhibition is the relative decrease from the control value, in per cent. `Cn1cc(-c2n[nH]c3ccc(NCc4cc(F)ccc4S(C)(=O)=O)cc23)cn1` had a clearance in data set [1] of 73.3 mL/min/kg. For the same compound, the Kp in [2] is 0.03. Moreover, the “Cp(f)” value in the data set on Rattus norvegicus [3] is given as 70.9 nM. Further, the outcome in the data set on Rattus norvegicus [4] was Active. Moreover, the inhibition in [5] was -2%; in data set [6] it was -9%; in data set [7], -6%; in data set [8] it was 5%; in data set [9], 5%; in data set [10], -8%. In addition, the inhibition in data set [11] is -8%; in [12], 4%.
